Data on 5 molecules can be found in ChEMBL document CHEMBL3044606, “Binding of sodium houttuyfonate analogues to bovine serum albumin revealed by fluoresence quenching study” (Med Chem Res, 2010).

Each structure is given as a SMILES string.

What all share (type): ADME
Conditions in all cases: cattle, isolated protein; call rule not given here

For data set [1], the target named is T1, Albumin (Bos taurus, UniProt P02769). Put plainly: Binding affinity to Bos taurus (bovine) serum albumin assessed as decrease in decrease in absorption at 50 uM after 5 min by UV-Vis spectrophotometric analysis. More on the design: scale not given: the % may be the effect or the level left.
T1 sequence (P02769 whole entry): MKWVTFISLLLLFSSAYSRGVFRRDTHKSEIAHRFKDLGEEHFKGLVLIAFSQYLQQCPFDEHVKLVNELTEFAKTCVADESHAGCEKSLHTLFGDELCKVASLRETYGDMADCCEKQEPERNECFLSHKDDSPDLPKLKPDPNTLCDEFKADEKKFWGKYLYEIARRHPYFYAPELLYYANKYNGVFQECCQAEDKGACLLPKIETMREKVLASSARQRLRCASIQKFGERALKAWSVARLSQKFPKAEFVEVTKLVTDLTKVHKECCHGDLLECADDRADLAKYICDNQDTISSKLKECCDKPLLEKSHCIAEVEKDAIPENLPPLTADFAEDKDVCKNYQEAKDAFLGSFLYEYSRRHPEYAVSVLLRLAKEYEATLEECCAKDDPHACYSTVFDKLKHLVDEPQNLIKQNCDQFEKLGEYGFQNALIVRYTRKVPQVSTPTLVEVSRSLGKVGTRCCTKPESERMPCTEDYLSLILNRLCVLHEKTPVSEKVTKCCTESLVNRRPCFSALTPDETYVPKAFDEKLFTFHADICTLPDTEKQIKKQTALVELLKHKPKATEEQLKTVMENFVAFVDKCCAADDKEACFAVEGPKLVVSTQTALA
Data set [2] has as its target T1, Albumin. Put plainly: Binding affinity to Bos taurus (bovine) serum albumin after 5 min at 37 degC by Stern-Volmer plot analysis.
Data set [3] concerns the target T1, Albumin. Kind of data set: Binding affinity to Bos taurus (bovine) serum albumin after 5 min at 25 degC by Stern-Volmer plot analysis.
For data set [4], the target named is T1, Albumin. Kind of data set: Binding affinity to Bos taurus (bovine) serum albumin assessed as shift in emission wavelength at 25 to 200 uM after 5 min by fluorimetric analysis.
Data set [5] deals with T1, Albumin. Put plainly: Binding affinity to Bos taurus (bovine) serum albumin assessed as decrease in fluorescence at 1:25 protein:compound ratio after 5 min by fluorimetric analysis.
Data set [6] concerns the target T1, Albumin. Put plainly: Binding affinity to Bos taurus (bovine) serum albumin assessed as decrease in fluorescence after 5 min by fluorimetric analysis.

Take `CCCCCCCC(=O)CC(O)S(=O)(=O)[O-].[Na+]` (stereo not given) [OCTANOYL ACETAL SODIUM SULFITE]: the Activity on Albumin [1] was 50%; at Albumin [4] it was “Not Active”; on Albumin [5], “Active”; on Albumin [6], “Dose-dependent effect”. Besides, the KSV at Albumin [2] is reported as 529.2 ×10³ /M; on Albumin [3] it was 381.3 ×10³ /M. Moreover, the Kq at Albumin [2] came to 52.92 ×10¹² /M/s; on Albumin [3], 38.13 ×10¹² /M/s. The K at Albumin [3] amounted to 691.83 ×10⁶ /M.

Turning to `CCCCCCCCCCCCCC(=O)CC(O)S(=O)(=O)[O-].[Na+]` (stereo not given) [TETRADECANOYL ACETAL SODIUM SULFITE], the Activity on Albumin [1] is recorded as 90%; on Albumin [4] it was “Not Active”; at Albumin [5], “Active”; at Albumin [6] it was “Dose-dependent effect”. For the same molecule, the KSV came out at 93.2 ×10³ /M at Albumin [2] and 121.7 ×10³ /M at Albumin [3]. In addition, the figures for the Kq at Albumin [2] and at Albumin [3] were 9.32 ×10¹² /M/s and 12.17 ×10¹² /M/s, respectively. The K at Albumin [3] stood at 1360.5 ×10⁶ /M.

Consider `CCCCCCCCCCCC(=O)CC(O)S(=O)(=O)[O-].[Na+]` (stereo not given) [DODECANOYL ACETAL SODIUM SULFITE], for which the Activity on Albumin [1] is given as 90%; on Albumin [4], “Not Active”; on Albumin [5], “Active”; on Albumin [6] it was “Dose-dependent effect”. For the same molecule, the values for the KSV on Albumin [2] and on Albumin [3] were 72 ×10³ /M and 147.9 ×10³ /M, respectively. In addition, the figures for the Kq on Albumin [2] and on Albumin [3] were 7.2 ×10¹² /M/s and 14.79 ×10¹² /M/s, respectively. Besides, the K at Albumin [3] is given as 0.197 ×10⁶ /M.

As to `CCCCCCCCCC(=O)CC(O)S(=O)(=O)[O-].[Na+]` (stereo not given) [SODIUM HOUTTUYFONATE], the Activity at Albumin [1] is recorded as 90%; at Albumin [4] it was “Not Active”; at Albumin [5], “Active”; on Albumin [6], “Dose-dependent effect”. Further, the KSV is 113 ×10³ /M on Albumin [2] and 217.3 ×10³ /M on Albumin [3]. Further, the Kq on Albumin [2] came out at 11.3 ×10¹² /M/s; at Albumin [3] it was 21.73 ×10¹² /M/s. On Albumin [3], this molecule displayed a K of 84.606 ×10⁶ /M.

Turning to `CCCCCC(=O)CC(O)S(=O)(=O)[O-].[Na+]` (stereo not given) [HEXANOYL ACETAL SODIUM SULFITE], the Activity at Albumin [1] is 50%; at Albumin [4], “Not Active”; at Albumin [5], “Not Active”; on Albumin [6], “Dose-dependent effect”. In addition, the KSV on Albumin [2] was found to be 73.5 ×10³ /M; at Albumin [3], 36.7 ×10³ /M. Moreover, the Kq worked out at 7.35 ×10¹² /M/s at Albumin [2] and 3.67 ×10¹² /M/s on Albumin [3]. The molecule also showed a K at Albumin [3] of 6.7081 ×10⁶ /M.
